# Experimental data as given in patent US5292733A, “Cephalosporin compounds” (Lucky Limited, priority 1991, dated 1994).
# How the values were obtained:
# Assay in all cases: Antibacterial activity MIC, two-fold agar dilution
# Type in all cases: cell-based
# [1] = test system: Acinetobacter calcoaceticus ATCC 15473; details: Acinetobacter calcoaceticus ATCC 15473, Muller-Hinton agar, 37° C., 20 hours; for MIC: ATCC15473, read-out: Antibacterial Activity MIC
# Method: (§1) These MIC values were taken by employing a two-fold dilution method: that is, two-fold serial dilutions of each of the test compounds were made and dispersed in a Muller-Hinton agar medium; 2 μl of the standard test strain which had the 10^7 CFU(Colony Forming Unit) per ml was inoculated on the medium; and these were incubated at 37° C. for 20 hours. The results of the MIC tests are shown Table 1.
# [2] = test system: Bacillus cereus ATCC 11778; details: Bacillus cereus ATCC 11778, Muller-Hinton agar, 37° C., 20 hours; for MIC: ATCC11778, read-out: Antibacterial Activity MIC
# Method: as §1
# [3] = test system: Bacillus megaterium ATCC 9885; details: Bacillus megaterium ATCC 9885, Muller-Hinton agar, 37° C., 20 hours; for MIC: Priestia megaterium, ATCC9885, read-out: Antibacterial Activity MIC
# Method: as §1
# [4] = test system: Citrobacter freundii ATCC 8090; details: Citrobacter freundii ATCC 8090, Muller-Hinton agar, 37° C., 20 hours; for MIC: ATCC8090, read-out: Antibacterial Activity MIC
# Method: as §1
# [5] = test system: Enterobacter aerogenes ATCC 29751; details: Enterobacter aerogenes ATCC 29751, Muller-Hinton agar, 37° C., 20 hours; for MIC: Klebsiella aerogenes, ATCC29751, read-out: Antibacterial Activity MIC
# Method: as §1
# [6] = test system: Enterobacter cloacae ATCC 27508; details: Enterobacter cloacae ATCC 27508, Muller-Hinton agar, 37° C., 20 hours; for MIC: ATCC27508, read-out: Antibacterial Activity MIC
# Method: as §1
# [7] = test system: Escherichia coli ATCC 10536; details: 37° C., 20 hours; for MIC: ATCC10536, Muller-Hinton agar
# Method: as §1
# [8] = test system: Escherichia coli ATCC 25922; details: 37° C., 20 hours; for MIC: ATCC25922, Muller-Hinton agar
# Method: as §1
# [9] = test system: Klebsiella pneumoniae ATCC 10031; details: Klebsiella pneumoniae ATCC 10031, Muller-Hinton agar, 37° C., 20 hours; for MIC: ATCC10031, read-out: Antibacterial Activity MIC
# Method: as §1
# [10] = test system: Micrococcus luteus ATCC 9341; details: Micrococcus luteus ATCC 9341, Muller-Hinton agar, 37° C., 20 hours; for MIC: ATCC9341, read-out: Antibacterial Activity MIC
# Method: as §1
# [11] = test system: Morganella morganii ATCC 8076h; details: Muller-Hinton agar, 37° C., 20 hours; for MIC: ATCC8076H
# Method: as §1
# [12] = test system: Proteus mirabilis ATCC 25933; details: Proteus mirabilis ATCC 25933, Muller-Hinton agar, 37° C., 20 hours; for MIC: ATCC25933, read-out: Antibacterial Activity MIC
# Method: as §1
# [13] = test system: Proteus vulgaris ATCC 6059; details: Proteus vulgaris ATCC 6059, Muller-Hinton agar, 37° C., 20 hours; for MIC: ATCC6059, read-out: Antibacterial Activity MIC
# Method: as §1
# [14] = test system: Providencia rettgeri ATCC 9250; details: 37° C., 20 hours; for MIC: ATCC9250, Muller-Hinton agar
# Method: as §1
# [15] = test system: Pseudomonas aeruginosa ATCC 10145; details: Pseudomonas aeruginosa ATCC 10145, Muller-Hinton agar, 37° C., 20 hours; for MIC: ATCC10145, read-out: Antibacterial Activity MIC
# Method: as §1
# [16] = test system: Pseudomonas aeruginosa ATCC 25619; details: Pseudomonas aeruginosa ATCC 25619, Muller-Hinton agar, 37° C., 20 hours; for MIC: ATCC25619, read-out: Antibacterial Activity MIC
# Method: as §1
# [17] = test system: Pseudomonas aeruginosa ATCC 27853; details: Pseudomonas aeruginosa ATCC 27853, Muller-Hinton agar, 37° C., 20 hours; for MIC: ATCC27853, read-out: Antibacterial Activity MIC
# Method: as §1
# [18] = test system: Salmonella typhimurium ATCC 14028; details: Salmonella typhimurium ATCC 14028, Muller-Hinton agar, 37° C., 20 hours; for MIC: Salmonella enterica, read-out: Antibacterial Activity MIC
# Method: as §1
# [19] = test system: Serratia marcescens ATCC 27117; details: Serratia marcescens ATCC 27117, Muller-Hinton agar, 37° C., 20 hours; for MIC: ATCC27117, read-out: Antibacterial Activity MIC
# Method: as §1
# [20] = test system: Shigella flexneri ATCC 11836; details: 37° C., 20 hours; for MIC: ATCC11836, Muller-Hinton agar
# Method: as §1
# [21] = test system: Shigella sonnei ATCC 11060; details: 37° C., 20 hours; for MIC: ATCC11060, Muller-Hinton agar
# Method: as §1
# [22] = test system: Staphylococcus aureus ATCC 10537; details: Staphylococcus aureus ATCC 10537, Muller-Hinton agar, 37° C., 20 hours; for MIC: ATCC10537, read-out: Antibacterial Activity MIC
# Method: as §1
# [23] = test system: Staphylococcus aureus ATCC 6538p; details: Staphylococcus aureus ATCC 6538p, Muller-Hinton agar, 37° C., 20 hours; for MIC: ATCC6538P, read-out: Antibacterial Activity MIC
# Method: as §1
# [24] = test system: Staphylococcus epidermidis ATCC 12228; details: Staphylococcus epidermidis ATCC 12228, Muller-Hinton agar, 37° C., 20 hours; for MIC: ATCC12228, read-out: Antibacterial Activity MIC
# Method: as §1
# [25] = test system: Streptococcus faecalis ATCC 29212; details: Streptococcus faecalis ATCC 29212, Muller-Hinton agar, 37° C., 20 hours; for MIC: Enterococcus faecalis, ATCC29212, read-out: Antibacterial Activity MIC
# Method: as §1
molecule,measurement,setting,value
"CC[n+]1c(N)cc(SCC2=C(C(=O)[O-])N3C(=O)[C@@H](NC(=O)/C(=N\OC(C)C(=O)O)c4csc(N)n4)[C@H]3SC2)nc1N (stereo partly drawn) [Compound I-20, (6R,7R)-7-[(Z)-2-(2-aminothiazol-4-yl)-2-(R,S-carboxyeth-1-oxyimino)acetamido]-3-(2,6-diamino-1-ethylprimidinium-4-yl)thiomethyl-3cephem-4-carboxylate]",MIC,[1],8 µg/mL
same,MIC,[2],128 µg/mL
same,MIC,[3],0.25 µg/mL
same,MIC,[4],0.13 µg/mL
same,MIC,[5],1 µg/mL
same,MIC,[6],0.016 µg/mL
same,MIC,[7],0.13 µg/mL
same,MIC,[8],0.13 µg/mL
same,MIC,[9],0.063 µg/mL
same,MIC,[10],0.25 µg/mL
same,MIC,[11],≤ 0.008 µg/mL
same,MIC,[12],0.063 µg/mL
same,MIC,[13],0.25 µg/mL
same,MIC,[14],≤ 0.008 µg/mL
same,MIC,[15],4 µg/mL
same,MIC,[16],1 µg/mL
same,MIC,[17],2 µg/mL
same,MIC,[18],0.5 µg/mL
same,MIC,[19],0.25 µg/mL
same,MIC,[20],0.016 µg/mL
same,MIC,[21],0.5 µg/mL
same,MIC,[22],4 µg/mL
same,MIC,[23],2 µg/mL
same,MIC,[24],4 µg/mL
same,MIC,[25],128 µg/mL
"CC(O/N=C(\C(=O)N[C@@H]1C(=O)N2C(C(=O)[O-])=C(CSc3cc(N)nc(N)[n+]3C)CS[C@H]12)c1csc(N)n1)C(=O)O (stereo partly drawn) [Compound I-3, (6R,7R)-7-[(Z)-2-(2-aminothiazol-4-yl)-2-(R,S-carboxyeth-1-oxyimino)acetamido]-3-(2,6-diamino-3-methylpyrimidinium-4-yl)thiomethyl-3-cephem-4-carboxylate]",MIC,[1],2 µg/mL
same,MIC,[2],64 µg/mL
same,MIC,[3],0.25 µg/mL
same,MIC,[4],0.13 µg/mL
same,MIC,[5],2 µg/mL
same,MIC,[6],0.016 µg/mL
same,MIC,[7],0.13 µg/mL
same,MIC,[8],0.13 µg/mL
same,MIC,[9],0.031 µg/mL
same,MIC,[10],0.5 µg/mL
same,MIC,[11],≤ 0.008 µg/mL
same,MIC,[12],0.31 µg/mL
same,MIC,[13],0.063 µg/mL
same,MIC,[14],≤ 0.008 µg/mL
same,MIC,[15],1 µg/mL
same,MIC,[16],1 µg/mL
same,MIC,[17],1 µg/mL
same,MIC,[18],0.5 µg/mL
same,MIC,[19],0.13 µg/mL
same,MIC,[20],0.031 µg/mL
same,MIC,[21],0.25 µg/mL
same,MIC,[22],4 µg/mL
same,MIC,[23],4 µg/mL
same,MIC,[24],2 µg/mL
same,MIC,[25],> 128 µg/mL
"(6R,7R)-7-[(Z)-2-(5-aminothiazol-4-yl)-2-(2-propyn-1-oxyimino)acetamido]-3-(2,6-diamino-1-methylpyrimidinium-4-yl)thiomethyl-3-cephem-4-carboxylate [Compound I-16]",Antibacterial Activity MIC,[1],8 µg/mL
same,Antibacterial Activity MIC,[2],64 µg/mL
same,Antibacterial Activity MIC,[3],0.25 µg/mL
same,Antibacterial Activity MIC,[4],0.25 µg/mL
same,Antibacterial Activity MIC,[5],1 µg/mL
same,Antibacterial Activity MIC,[6],0.063 µg/mL
same,Antibacterial Activity MIC,[7]; Muller-Hinton agar,0.5 µg/mL
same,Antibacterial Activity MIC,[8]; Muller-Hinton agar,0.5 µg/mL
same,Antibacterial Activity MIC,[9],0.016 µg/mL
same,Antibacterial Activity MIC,[10],0.031 µg/mL
same,Antibacterial Activity MIC,[11],0.016 µg/mL
same,Antibacterial Activity MIC,[12],1 µg/mL
same,Antibacterial Activity MIC,[13],1 µg/mL
same,Antibacterial Activity MIC,[14]; Muller-Hinton agar,<= 0.008 μg/ml
same,Antibacterial Activity MIC,[15],8 µg/mL
same,Antibacterial Activity MIC,[16],2 µg/mL
same,Antibacterial Activity MIC,[17],4 µg/mL
same,Antibacterial Activity MIC,[18],1 µg/mL
same,Antibacterial Activity MIC,[19],2 µg/mL
same,Antibacterial Activity MIC,[20]; Muller-Hinton agar,0.25 µg/mL
same,Antibacterial Activity MIC,[21]; Muller-Hinton agar,0.5 µg/mL
same,Antibacterial Activity MIC,[22],0.5 µg/mL
same,Antibacterial Activity MIC,[23],0.5 µg/mL
same,Antibacterial Activity MIC,[24],0.25 µg/mL
same,Antibacterial Activity MIC,[25],32 µg/mL
